Test results reported in PubChem BioAssay (NCI).
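Five compound concentrations were applied to cells in 96-well plates for 48 hours; endpoints were derived by simple linear interpolation of the resulting dose-response curve. TGI: total growth inhibition.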

Legend:
Test in all cases: NCI-60 cell line screen, 48 h
[1] = system: MDA-MB-231 breast
[2] = system: SF-539 CNS
[3] = system: CCRF-CEM leukemia
[4] = system: K-562 leukemia
[5] = system: NCI-H460 lung
[6] = system: HOP-62 NSCLC
[7] = system: CAKI-1 renal
[8] = system: SW-620 colon
[9] = system: M14 melanoma
[10] = system: TK-10 renal
[11] = system: NCI-H23 lung
[12] = system: MCF7 breast
[13] = system: UACC-257 melanoma
[14] = system: IGROV1 ovarian
[15] = system: SR leukemia
[16] = system: SF-295 CNS
[17] = system: BT-549 breast
[18] = system: HCC-2998 colon
[19] = system: MOLT-4 leukemia
[20] = system: SK-MEL-28 melanoma
[21] = system: MDA-N
[22] = system: SF-268 CNS
[23] = system: HCT-116 colon
[24] = system: SNB-19 CNS
[25] = system: OVCAR-5 ovarian
[26] = system: RPMI-8226 leukemia
[27] = system: MDA-MB-435
[28] = system: KM12 colon
[29] = system: MALME-3M melanoma
[30] = system: ACHN renal
[31] = system: NCI-H522 lung
[32] = system: SK-OV-3 ovarian
[33] = system: T-47D breast
[34] = system: PC-3 prostate
[35] = system: DU-145 prostate
[36] = system: OVCAR-8 ovarian
[37] = system: HS 578T breast
[38] = system: RXF 393 renal
[39] = system: HL-60(TB) leukemia
[40] = system: LOX IMVI melanoma
[41] = system: NCI/ADR-RES ovarian
[42] = system: HCT-15 colon
[43] = system: SK-MEL-5 melanoma
[44] = system: A549 NSCLC
[45] = system: UO-31 renal
[46] = system: OVCAR-3 ovarian
[47] = system: SNB-75 CNS
[48] = system: 786-0 renal
[49] = system: EKVX NSCLC
[50] = system: A498 renal
[51] = system: COLO 205 colon
[52] = system: HT29 colon
[53] = system: SN12C renal
[54] = system: UACC-62 melanoma
[55] = system: HOP-92 NSCLC
[56] = system: OVCAR-4 ovarian
[57] = system: SK-MEL-2 melanoma
[58] = system: NCI-H226 lung
[59] = system: U251 CNS

Measured: TGI

CCOC(=O)c1nc2cc(C(F)(F)F)ccc2nc1Nc1ccc(OC)c(OC)c1
not listed: [56] | [57] | [58] | [59]
> 100 µM: all other assays above

CC1=c2c(oc3cc(O)c(Nc4c(C)cc(O)cc4O)c(C)c23)=CC(=O)C1=Nc1c(C)cc(O)cc1O
94.9 µM: [52]
35.1 µM: [43]
42.1 µM: [51]
63.1 µM: [31]
55.3 µM: [46]
88.3 µM: [47]
94 µM: [28]
33.5 µM: [27]
56.3 µM: [2]
68.5 µM: [23]
73.7 µM: [53]
70.1 µM: [16]
54.3 µM: [29]
55.7 µM: [18]
40 µM: [21]
50.4 µM: [11]
85.3 µM: [9]
not listed: [3] | [39] | [40]
> 100 µM: all other assays above

CC(=O)NC(Cc1cnc[nH]1)C(=O)N1CCCC1C(N)=O (stereo unspecified)
not listed: [2] | [13] | [50] | [57]
> 100 µM: all other assays above
